Assay [1] has as its system human pancreatic adenocarcinoma cell line MDAPanc-3. Nature of the assay: Proliferation test by recount of the cells number (hemocytometer), MDAPanc-3. Format: cell-based. How it is done:
In this assay and with the aim of determining whether the presence in the culture medium produces some effect on the growth in vitro of the cell lines, the final number of the cells when the control reaches monolayer is determined, in the presence and in the absence of the inhibitor. The calculation is made by direct recount of the number of cells using trypsinization and subsequent recount in a hemocytometer. The detailed method is as follows:
1. In each of the three culture flasks of 25 cm^2, 5×10^5 cells are seed and a total volume of the culture medium is added (DMEM with a 10% of fetal bovine serum or synthetic serum, according to the test) of 5 mL:
A first flask is used as control and no PCI is added to it.
PCI is added to a second flask some hours after the culture has started and once the cells have adhered to the bottom of the flask. This type of test is defined as postadherence test.
PCI is added to a third flask at the same time as the culture has begun, before the cells have had time to adhere to the bottom of the flask, thus constituting the preadherence test.
2. The cells are maintained in an incubator at 37° C., 87% of relative humidity and 10% of CO2. The medium contained in the flasks is changed every 3-4 days. Medium free of PCI is added to the control flask; medium with PCI is added to the other two.
3. When the culture of one of the flasks reaches a state of monolayer (or after a specific number of days), we proceed to count the number of cells in each one of them. Firstly and in order to do that, the cells are trypsinized using the following steps:
Immediately after, the recount of the number of cells is done. To do that, an aliquot of 10 μL is taken and it is placed in an eppendorf tube. 10 μL of a solution of trypan blue dye is added. Then, it is well mixed and two aliquots of 10 μL of the mixture are taken and placed in the two zones of an hemocytometer which is placed in the inverted microscope.
The live cells are observed as being refringent and clear, while the dead ones are observed as opaque and dyed blue, for the staining is only able to penetrate dead cells. The total number of cells of the W zone of the hemocytometer is counted, differentiating between the live and the dead ones. Based on this recount, the total number of cells that was in the initial suspension (which will be the total number of cells that was in the culture) is calculated by multiplying the number obtained by 2×10^4. The viability (in %) is calculated by dividing the number of live cells by the total number of counted cells and multiplying it by 100.
The effect produced by the presence of PCI in the medium is expressed as % of cell growth inhibition, which is calculated according to the formula [formula] […]

The test system of assay [2] is mouse melanoma B16HM cell line. Description: In vitro invasiveness assay through Matrigel membrane. The following applies: PCI 50 μg/mL. It counts as cell-based. How it is done: In this test, with the aim of determining whether the PCI causes some difference in the invasive capacity of tumoral cells in vitro, the number of cells which had migrated through a membrane of Matrigel© in presence or absence of PCI in the culture medium was determined. The detailed protocol is as follows:
1. The wells of Matrigel© which are going to be employed are placed at room temperature on an empty plate of 24.
2. The wells are hydrated by adding […] of tempered full medium and kept for 1.5-2.0 h.
3. After the hydration, take the medium carefully out of the wells; later on, 200,000 cells are added to two wells, respectively. In one of them, we will add the medium in which the cells grow and in the other, medium with PCI.
4. After 17 h of culture in an incubator at 37° C., 90% of relative humidity and 5% of CO2, the samples are processed as follows:
4.11. Look at the microscope and count the number of cells that have migrated through the Matrigel filter.
The invasiveness tests in vitro were carried out with the mouse melanoma B16HM cell line selected as previously described (Barberàr-Guillem, E. et al. (1988) Invasion Metastasis, 8: 266-284). The wells were placed with medium in absence of PCI (control) and in presence of PCI, at a concentration of 50 μg/mL. […]

The next assay relates to trypsin. Description: Gene expression analysis by Northern transfer, trypsin probe. Format: cell-based, human. Particulars: for beta counts, Trypsin probe: 12 days, Capan-1 (control 511). How it is done:
To verify whether the PCI plays any role in signal transduction, studies of gene expression were carried out by Northern transfer. The probes were: β2-microglobulin, p53 and trypsin. The β2-microglobulin is a constitutive gene that is used as a sample loading control in the gel. p53 is a transcription factor which, among other functions, controls the state of the genomic DNA and the cell cycle (Bates, S. & Vousden, K. H. (1996) Curr. Opin. Genet. Develop., 6: 12-19). If the DNA is damaged, p53 induces its repair and, if it is excessively damaged, it provokes programmed cellular death (apoptosis). Trypsin is a marker of pancreatic cells of the acinar type. The trypsin is not expressed by all the tumoral cells and it is believed that it is expressed by the cells with metastatic power and/or invasive power (Fernández, E. et al., (1994) Cancer, 73: 2285-2295). The probes employed are described as follows:
In the first place, 3×10^6 cells of the human pancreatic adenocarcinoma cell line Capan-1 were placed in each one of the 12 flasks of 150 cm^2. […] They were maintained in culture for 12 days period, changing their medium every 4 days, adding fresh PCI. Once the treatment was completed, the cells were trypsinized and the sediment of the cells was kept at −80° C. Afterwards, the extraction of the RNA was carried out.
The quantifying of the hybridized filters with the respective probes was done using a Betascope 601 blot Analyzer counter (Betagen, USA). The counting time was 45 min for the hybridized filter with the probe p53 and β2-microglobuline and 2 h for the trypsin probe.
Assuming that the counts of the β2-Microglobuline are an indication of the total amount of poly(A^+) RNA, the data may be standardized as a percentage of counts of the band compared to the β2-microglobuline counts of the same cells, giving a value which depends on the abundance of the specific mRNA in relation to the total of mRNA.

Assay [3] has as its system human pancreatic adenocarcinoma cell line Panc-1. Format: cell-based. Particulars: SFM, 72 h.

Read-outs that look alike come from different tables or passages of the source. Positions of bridges follow the written chain, without caps; N, C: chain ends. No end group written: not given here.

As for “PCI: potato carboxypeptidase inhibitor, isoform IIa, obtained by recombinant DNA techniques in E. coli (SEQ ID NO.2) (EQHADPICNKPCKTHDDCSGAWFCQACWNSARTCGPYVG; disulfide 12-27, 18-34, 8-24)”, the “Percentage of Growth Inhibition” value is 19.1 ± 14.5% in assay [1] (5 mg PCI/mL, Postadhesion); 20.7 ± 6.9% in assay [1] (5 mg PCI/mL, Preadhesion, DMEM+10%BMS until controls confluent); 14.3 ± 12.4% in assay [1] (10 mg PCI/mL, Postadhesion); 14.6 ± 14.2% in assay [1] (10 mg PCI/mL, Preadhesion). In assay [2], the “stimulation of the migration compared to the control” value is on record as 3.5 times. In addition, the “number of cells that passed through the Matrigel membrane” value in assay [2] (17 h (control 29 cells)) was determined as 110 cells. In addition, the “lower transcription of trypsin, inverse quotient (control/treatment)” value turned out to be 2.9 times in the assay with trypsin (1 mg/mL PCI) and 7.8 times in the assay on trypsin (10 mg/mL PCI). Moreover, the “Trypsin/b2 (counts of one band in relation to those of β2-microglobuline)” value in the assay with trypsin (1 mg/mL PCI (control 0.5351)) was found to be 0.1814; with trypsin (10 mg/mL PCI (control 0.5351)), 0.0687. Also, the “beta counts, Trypsin probe” value in the assay on trypsin (1 mg/mL PCI) worked out at 396; with trypsin (10 mg/mL PCI), 432. The figures for the “Growth (Percentage in relation to the average of the controls)” value in assay [3] (EGF 10 ng/mL + 50 mg/mL wtPCI) and in assay [3] (Insulin 5 mg/mL + 50 mg/mL wtPCI) were 15.81% and 26.34%, respectively.

The record behind these values is patent US6379959B1, “Metalocarboxypeptidase inhibitors and derived molecules used as antitumor agents” (Universitat Autonoma de Barcelona, priority 1996, dated 2002).
